Measured values taken from article PMC11286772, “Structural basis of antagonist selectivity in endothelin receptors” (Cell Discovery, 2024).
Positions count from the first letter of the chain named. Read-outs that look alike come from different tables or passages of the source.

Experiments:
Type in all cases: cell-based
ETA R326^6.55A = target: T1, ETA R326^6.55A (Homo sapiens, UniProt P25101, R326A); test: Calcium mobilization assay, antagonist mode
T1 construct: expressed in transfected cells; host or cells: CHO-K1
T1 sequence (P25101 21-427 R326A): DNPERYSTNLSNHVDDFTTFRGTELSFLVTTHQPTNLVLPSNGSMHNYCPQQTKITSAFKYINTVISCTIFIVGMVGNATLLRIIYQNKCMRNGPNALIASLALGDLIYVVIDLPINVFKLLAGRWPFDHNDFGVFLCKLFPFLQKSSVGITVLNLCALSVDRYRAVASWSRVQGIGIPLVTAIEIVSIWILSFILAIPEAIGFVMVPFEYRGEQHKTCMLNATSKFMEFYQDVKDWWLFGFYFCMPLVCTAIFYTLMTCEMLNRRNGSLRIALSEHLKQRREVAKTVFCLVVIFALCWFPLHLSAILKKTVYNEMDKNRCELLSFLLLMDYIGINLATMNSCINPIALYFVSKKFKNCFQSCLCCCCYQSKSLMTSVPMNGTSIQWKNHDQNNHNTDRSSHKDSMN
Procedure: (§1) CHO-K1 cells were cultured in Ham’s F-12K (Kaighn’s) Medium (Gibco-Thermo Fisher Scientific) supplemented with 10% (v/v) fetal bovine serum (FBS; Gibco-Thermo Fisher Scientific), and 100 U/mL Penicillin-Streptomycin (Gibco-Thermo Fisher Scientific) in a humidified incubator at 37 °C with 5% CO2. Cells were seeded in 6-cm dishes overnight; when the density reached 60%–80%, the cells were transferred to F12K Medium supplemented with 10% FBS and transfected with 1.5 μg DNA encoding the ETA WT or mutants or 3 μg DNA encoding the ETB WT or mutants using TransIT2020 (Mirus Biosciences). The next day, transfected cells were harvested from the plate using Versene buffer (Gibco-Thermo Fisher Scientific) and seeded into black-sided, clear-bottomed 384-well plates (Agilent) at a density of 1,5000 cells per well. After 20 h, the 1% dFBS medium was removed, and cells were loaded with 20 μL/well of 1× Calcium 6 dye (Molecular Devices) and incubated at 37 °C for 1 h in the dark. […] All data were analyzed using GraphPad Prism 8 and the data are from at least three independent replicate experiments. All plots are shown as means ± SEM. Data were determined using one-way ANOVA followed by Dunnett’s multiple test compared with WT. The top value was normalized to 100% and the bottom value was normalized to 0% for the final presentation. Nonlinear curve fit was performed using a four-parameter logistic equation (log (agonist vs response) or log (inhibitor vs response)).

ETA L322^6.51A = target: T2, ETA L322^6.51A (Homo sapiens, UniProt P25101, L322A); test: Calcium mobilization assay, antagonist mode
T2 construct: expressed in transfected cells; host or cells: CHO-K1
T2 sequence (P25101 21-427 L322A): T1 sequence (P25101 21-427 R326A) with L302A, A306R
Procedure: as §1

ETA F161^3.28A = target: T3, ETA F161^3.28A (Homo sapiens, UniProt P25101, F161A); test: Calcium mobilization assay, antagonist mode
T3 construct: expressed in transfected cells; host or cells: CHO-K1
T3 sequence (P25101 21-427 F161A): T1 sequence (P25101 21-427 R326A) with F141A, A306R
Procedure: as §1

ETA Y263^5.46A = target: T4, ETA Y263^5.46A (Homo sapiens, UniProt P25101, Y263A); test: Calcium mobilization assay, antagonist mode
T4 construct: expressed in transfected cells; host or cells: CHO-K1
T4 sequence (P25101 21-427 Y263A): T1 sequence (P25101 21-427 R326A) with Y243A, A306R
Procedure: as §1

ETA L259^5.42A = target: T5, ETA L259^5.42A (Homo sapiens, UniProt P25101, L259A); test: Calcium mobilization assay, antagonist mode
T5 construct: expressed in transfected cells; host or cells: CHO-K1
T5 sequence (P25101 21-427 L259A): T1 sequence (P25101 21-427 R326A) with L239A, A306R
Procedure: as §1

ETA Y129^2.53H = target: T6, ETA Y129^2.53H (Homo sapiens, UniProt P25101, Y129H); test: Calcium mobilization assay, antagonist mode
T6 construct: expressed in transfected cells; host or cells: CHO-K1
T6 sequence (P25101 21-427 Y129H): T1 sequence (P25101 21-427 R326A) with Y109H, A306R
Procedure: as §1

ETA Y129^2.53F = target: T7, ETA Y129^2.53F (Homo sapiens, UniProt P25101, Y129F); test: Calcium mobilization assay, antagonist mode
T7 construct: expressed in transfected cells; host or cells: CHO-K1
T7 sequence (P25101 21-427 Y129F): T1 sequence (P25101 21-427 R326A) with Y109F, A306R
Procedure: as §1

ETA Y129^2.53A = target: T8, ETA Y129^2.53A (Homo sapiens, UniProt P25101, Y129A); test: Calcium mobilization assay, antagonist mode
T8 construct: expressed in transfected cells; host or cells: CHO-K1
T8 sequence (P25101 21-427 Y129A): T1 sequence (P25101 21-427 R326A) with Y109A, A306R
Procedure: as §1

ETA WT = target: T9, ETA WT (Homo sapiens, UniProt P25101); test: Calcium mobilization assay, antagonist mode (ET-1 stimulated), CHO-K1 cells
T9 construct: expressed in transfected cells; host or cells: CHO-K1
T9 sequence (P25101 21-427): T1 sequence (P25101 21-427 R326A) with A306R
Procedure: as §1

[1] = target: T10, ETB V177^3.28F+H150^2.53Y (Homo sapiens, UniProt P24530, H150Y/V177F); test: Calcium mobilization assay, antagonist mode
T10 construct: expressed in transfected cells; host or cells: CHO-K1
T10 sequence (P24530 27-442 H150Y/V177F): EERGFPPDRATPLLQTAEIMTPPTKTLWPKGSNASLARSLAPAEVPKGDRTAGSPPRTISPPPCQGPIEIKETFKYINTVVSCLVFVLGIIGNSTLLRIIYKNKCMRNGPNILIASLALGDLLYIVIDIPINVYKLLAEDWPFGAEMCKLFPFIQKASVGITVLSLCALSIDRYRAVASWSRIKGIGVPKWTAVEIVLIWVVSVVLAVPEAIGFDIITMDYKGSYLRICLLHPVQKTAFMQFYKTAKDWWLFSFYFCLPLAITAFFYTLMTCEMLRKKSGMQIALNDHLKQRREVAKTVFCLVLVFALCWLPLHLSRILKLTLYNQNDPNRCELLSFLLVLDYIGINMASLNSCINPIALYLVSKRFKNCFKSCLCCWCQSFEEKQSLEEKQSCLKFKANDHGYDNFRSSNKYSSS
Procedure: as §1

ETB H150^2.53Y = target: T11, ETB H150^2.53Y (Homo sapiens, UniProt P24530, H150Y); test: Calcium mobilization assay, antagonist mode
T11 construct: expressed in transfected cells; host or cells: CHO-K1
T11 sequence (P24530 27-442 H150Y): T10 sequence (P24530 27-442 H150Y/V177F) with F151V
Procedure: as §1

[2] = CHO-K1 cells, n = 5, read-out: IC50, inhibition activity on ETA in calcium mobilization assay
[3] = read-out: pIC50±S.E.M. (converted)

Compound	IC50 (ETA R326^6.55A)	IC50 (ETA L322^6.51A)	IC50 (ETA F161^3.28A)	IC50 (ETA Y263^5.46A)	IC50 (ETA L259^5.42A)	IC50 (ETA Y129^2.53H)	IC50 (ETA Y129^2.53F)	IC50 (ETA Y129^2.53A)	IC50 (ETA WT; [2])	IC50 (ETA WT; [3])	IC50 [1]	IC50 (ETB H150^2.53Y)
COC(c1ccccc1)(c1ccccc1)[C@H](Oc1nc(C)cc(C)n1)C(=O)O [ambrisentan]	7940 nM	575 nM	89.1 nM	813 nM	15500 nM	575 nM	2.34 nM	204 nM	0.6 nM	0.389 nM	–	–
CCCNS(=O)(=O)Nc1ncnc(OCCOc2ncc(Br)cn2)c1-c1ccc(Br)cc1 [macitentan, N-[5-(4-bromophenyl)-6-[2-[(5-bromo-2-pyrimidinyl)oxy]ethoxy]-4-pyrimidinyl]-N’-propylsulfamide]	36.3 nM	347 nM	17.8 nM	15.5 nM	234 nM	891 nM	1.2 nM	1020 nM	1.3 nM	1.17 nM	–	–
COc1nc(C)cnc1NS(=O)(=O)c1cccnc1-c1ccc(-c2nnco2)cc1 [zibotentan]	–	–	–	–	–	–	–	–	–	–	33100 nM	56200 nM
